System: K98450-129-R-PDC multicell spheroids, viability
Assay: Anticancer human tumor K98450-129-R-PDC patient-derived colon adenocarcinoma cell line growth inhibition [PI3K]
Conditions: for IC50: curve of first compound; for viability, T/C: stronger effect = lower value
From the text: Combinatorial screen of targeted agents with the PI3K inhibitors inavolisib, alpelisib, duvelisib, and copanlisib in multi-cell type tumor spheroids
A high-throughput screen of multi-cell type tumor spheroids was designed to identify active combinations of targeted small molecules and PI3K pathway inhibitors. Complex spheroids include a stromal component modeled by human endothelial cells (HUVEC) and fibroblasts modeled by human mesenchymal stem cells (MSCs). The concentration ranges selected for each drug and investigational agent were based upon clinically achievable concentrations if the clinical Cmax of the agent was known.
Compounds. The drugs and investigational agents: inavolisib (NSC800729), alpelisib (NSC765974), duvelisib (NSC772469), copanlisib (NSC816437), ipatasertib (NSC767898), afuresertib (NSC778305), talazoparib (NSC767125), sapanisertib (NSC764658), selumetinib (NSC741078), tovorafenib (DAY101, NSC766906), vemurafenib (NSC761431), ravoxertinib (NSC781343), sotorasib (NSC818433), MRTX1133 (NSC 836407), abemaciclib (NSC 768073), palbociclib (NSC758247), venetoclax (NSC 766270), SY5609 (NSC837396), enzalutamide (NSC755605), and darolutamide (NSC825331), were obtained from the National Cancer Institute (NCI) Developmental Therapeutics Program Chemical Repository. The FDA-approved anticancer drug set is available from the NCI Developmental Therapeutics Program. […] The stock solutions were prepared in dimethyl sulfoxide (DMSO, Sigma-Aldrich, St. Louis, MO, cat. D2650) at 800-fold the tested concentration and stored at -70 degrees C prior to their use. All drugs and investigational agents were tested over a range starting from a high concentration at or near the clinical Cmax and decreasing in half-log increments. If the clinical Cmax for an agent had not been determined, the highest concentration tested was 10 microM.
Cell Culture. All cells were maintained in an incubator at 37 degrees C and 5% CO2 with 95% humidity. The PDC lines were cultured according to standard operating procedures established by the NCI PDMR (https://pdmr.cancer.gov/sops/default.htm). All PDCs were thawed and cultured in Matrigel-coated flasks prepared with a working solution of 1X Ham's F-12 nutrient mix, without supplementation (Invitrogen, Waltham, MA, cat. 11765054), 100 U/mL penicillin-streptomycin (Invitrogen, cat. 15140122), and 2.5% Matrigel (Corning Inc., Corning, NY, cat. 354248) for the first three passages. The 354836-022-R-J1-PDC, 475296-252-R-J1-PDC, and 997726-040-R-J2-PDC lines were cultured in 6A media, which includes advanced DMEM/F-12 (Thermo Fisher Scientific, cat. 12634028), 10 mM HEPES (Thermo Fisher Scientific, cat. 15630080), 1X GlutaMAX supplement (Thermo Fisher Scientific, cat. 35050061), 0.1 mg/mL primocin (InvivoGen, San Diego, CA, cat. ant-pm-2), 10% defined fetal bovine serum, heat inactivated (HyClone Laboratories Inc., Logan, UT, cat. SH30070.03HI), 50% L-WRN conditioned media (ATCC, cat. CRL-3276), 1.25 mM N-Acetyl-L-cysteine (Sigma-Aldrich, cat. A9165), 10 mM nicotinamide (Sigma-Aldrich, cat. N0636), 1X B-27 supplement (Thermo Fisher Scientific, cat. 17504044), 1X N-2 supplement (Thermo Fisher Scientific, cat. 17502048), and 10 microM Y-27632 dihydrochloride (Tocris Bioscience, Bristol, United Kingdom, cat. 1254). The 624824-186-R-J2-PDC line was cultured in 6C/Colon 1B media, which includes all 6A media components plus 50 ng/mL human EGF recombinant protein (Thermo Fisher Scientific, cat. PHG0311). […]

[1] = second compound 0.0316 µM, first compound 0.0316 µM
[2] = second compound 0.0316 µM, first compound 0.1 µM
[3] = second compound 0.1 µM, first compound 0.0316 µM
[4] = second compound 0.1 µM, first compound 0.1 µM
[5] = second compound 0.316 µM, first compound 0.0316 µM
[6] = second compound 0.316 µM, first compound 0.1 µM
[7] = second compound 1 µM, first compound 0.0316 µM
[8] = second compound 1 µM, first compound 0.1 µM
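Further: spheroids exposed to agents for seven days before read-out.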

`CCCS(=O)(=O)Nc1ccc(F)c(C(=O)c2c[nH]c3ncc(-c4ccc(Cl)cc4)cc23)c1F` + CC(Nc1ncnc2nc[nH]c12)c1cc2cccc(Cl)c2c(=O)n1-c1ccccc1 was tested, and the IC50 (second compound 0.0316 µM) was 5.17 µM, the IC50 (second compound 0.1 µM) was 6.03 µM and the IC50 (second compound 0.316 µM) was 5.29 µM. The IC50 (second compound 1 µM) was 5.51 µM, the IC50 (second compound 3.16 µM) was 5.87 µM and the IC50 (second compound 10 µM) was 5.53 µM. For the same compound, the viability, T/C [1] was 118%, the viability, T/C [2] was 97.9% and the viability, T/C (second compound 0.0316 µM, first compound 0.316 µM) was 106%. It also gave a viability, T/C (second compound 0.0316 µM, first compound 1 µM) of 113%, a viability, T/C (second compound 0.0316 µM, first compound 3.16 µM) of 85.5% and a viability, T/C (second compound 0.0316 µM, first compound 10 µM) of 2.37%. It also gave a viability, T/C [3] of 127%, a viability, T/C [4] of 94.6% and a viability, T/C (second compound 0.1 µM, first compound 0.316 µM) of 121%. The viability, T/C (second compound 0.1 µM, first compound 1 µM) was 112%, the viability, T/C (second compound 0.1 µM, first compound 3.16 µM) was 109% and the viability, T/C (second compound 0.1 µM, first compound 10 µM) was 3.82%. It also gave a viability, T/C [5] of 96.8%, a viability, T/C [6] of 97.2% and a viability, T/C (second compound 0.316 µM, first compound 0.316 µM) of 101%. For the same compound, the viability, T/C (second compound 0.316 µM, first compound 1 µM) was 111%, the viability, T/C (second compound 0.316 µM, first compound 3.16 µM) was 89% and the viability, T/C (second compound 0.316 µM, first compound 10 µM) was 1.77%. It also gave a viability, T/C [7] of 97%, a viability, T/C [8] of 104% and a viability, T/C (second compound 1 µM, first compound 0.316 µM) of 101%. It also gave a viability, T/C (second compound 1 µM, first compound 1 µM) of 120%, a viability, T/C (second compound 1 µM, first compound 3.16 µM) of 93.7% and a viability, T/C (second compound 1 µM, first compound 10 µM) of 2.88%. The viability, T/C (second compound 3.16 µM, first compound 0.0316 µM) was 97.1%, the viability, T/C (second compound 3.16 µM, first compound 0.1 µM) was 102% and the viability, T/C (second compound 3.16 µM, first compound 0.316 µM) was 95.3%. The viability, T/C (second compound 3.16 µM, first compound 1 µM) was 112%, the viability, T/C (second compound 3.16 µM, first compound 3.16 µM) was 114% and the viability, T/C (second compound 3.16 µM, first compound 10 µM) was 3.24%. The viability, T/C (second compound 10 µM, first compound 0.0316 µM) was 96.2%, the viability, T/C (second compound 10 µM, first compound 0.1 µM) was 102% and the viability, T/C (second compound 10 µM, first compound 0.316 µM) was 105%. For the same compound, the viability, T/C (second compound 10 µM, first compound 1 µM) was 102%, the viability, T/C (second compound 10 µM, first compound 3.16 µM) was 94.2% and the viability, T/C (second compound 10 µM, first compound 10 µM) was 3.07%.

With `CC(C)n1nc(-c2ccc3oc(N)nc3c2)c2c(N)ncnc21` + COc1c(OCCCN2CCOCC2)ccc2c3n(c(=NC(=O)c4cnc(N)nc4)nc12)CCN3 the IC50 (second compound 0.00316 µM) was > 0.1 µM, the IC50 (second compound 0.01 µM) was > 0.1 µM and the IC50 (second compound 0.0316 µM) was > 0.1 µM. For the same compound, the IC50 (second compound 0.1 µM) was > 0.1 µM, the IC50 (second compound 0.316 µM) was > 0.1 µM and the IC50 (second compound 1 µM) was 0.0507 µM. The viability, T/C (second compound 0.00316 µM, first compound 0.000316 µM) was 107%, the viability, T/C (second compound 0.00316 µM, first compound 0.001 µM) was 97.4% and the viability, T/C (second compound 0.00316 µM, first compound 0.00316 µM) was 107%. For the same compound, the viability, T/C (second compound 0.00316 µM, first compound 0.01 µM) was 83.6%, the viability, T/C (second compound 0.00316 µM, first compound 0.0316 µM) was 94.1% and the viability, T/C (second compound 0.00316 µM, first compound 0.1 µM) was 72.2%. The viability, T/C (second compound 0.01 µM, first compound 0.000316 µM) was 114%, the viability, T/C (second compound 0.01 µM, first compound 0.001 µM) was 86.4% and the viability, T/C (second compound 0.01 µM, first compound 0.00316 µM) was 96%. It also gave a viability, T/C (second compound 0.01 µM, first compound 0.01 µM) of 92.2%, a viability, T/C (second compound 0.01 µM, first compound 0.0316 µM) of 94.9% and a viability, T/C (second compound 0.01 µM, first compound 0.1 µM) of 69%. The viability, T/C (second compound 0.0316 µM, first compound 0.000316 µM) was 116%, the viability, T/C (second compound 0.0316 µM, first compound 0.001 µM) was 86% and the viability, T/C (second compound 0.0316 µM, first compound 0.00316 µM) was 85.2%. For the same compound, the viability, T/C (second compound 0.0316 µM, first compound 0.01 µM) was 67.9%, the viability, T/C [1] was 74% and the viability, T/C [2] was 56.9%. For the same compound, the viability, T/C (second compound 0.1 µM, first compound 0.000316 µM) was 76.6%, the viability, T/C (second compound 0.1 µM, first compound 0.001 µM) was 93% and the viability, T/C (second compound 0.1 µM, first compound 0.00316 µM) was 81.7%. The viability, T/C (second compound 0.1 µM, first compound 0.01 µM) was 78.7%, the viability, T/C [3] was 67.1% and the viability, T/C [4] was 55.5%. It also gave a viability, T/C (second compound 0.316 µM, first compound 0.000316 µM) of 58.1%, a viability, T/C (second compound 0.316 µM, first compound 0.001 µM) of 60.9% and a viability, T/C (second compound 0.316 µM, first compound 0.00316 µM) of 66.1%. It also gave a viability, T/C (second compound 0.316 µM, first compound 0.01 µM) of 70.4%, a viability, T/C [5] of 73.1% and a viability, T/C [6] of 47.7%. The viability, T/C (second compound 1 µM, first compound 0.000316 µM) was 53%, the viability, T/C (second compound 1 µM, first compound 0.001 µM) was 59.4% and the viability, T/C (second compound 1 µM, first compound 0.00316 µM) was 58.5%. It also gave a viability, T/C (second compound 1 µM, first compound 0.01 µM) of 69.8%, a viability, T/C [7] of 54.8% and a viability, T/C [8] of 35.2%.
